Data: patent publication US9737526B2, “Methods for treating Parkinson's disease” (INNOTESTO BVBA, priority 2012, dated 2017)
Several values for one entry are separate records, joined by “and”; a condition that tells them apart may be missing. Equal entries are not always repeated. Structures can show the parent of a compound that is named as a salt. Where two headings read alike, the source gives them in different places. One block for each molecule: values may come before it.

Key:
[1] = Solubilities of constituents in non-aqueous solvents; assay type: physicochemical; settings: organic solvent or mixture
Protocol: In a series of experiments, the solubilities of several constituents that may be used in the solution of the present invention were measured: […]

[2] = Stability experiments using ultraperformance liquid chromatography (UPLC); assay type: physicochemical
From the text: In stability experiments using ultraperformance liquid chromatography (UPLC) we confirmed that, in accordance with the scientific literature, apomorphine hydrochloride in aqueous solutions is not stable. It is quickly decomposed on storage.

[3] = tested on: Parkinson's disease subjects; settings: cited from earlier work; for time to peak benefit: nine Parkinson's disease subjects
[4] = water; also printed as 1% w/w; cited from earlier work
[5] = tested on: ciliated respiratory tissue; settings: 25% propylene glycol, 15% glycerol, 25% polyethylene glycol 400, 5% povidone in Locke-Ringer solution (WO2005/067893); cited from earlier work
[6] = tested on: ciliated respiratory tissue; test: Effect on ciliary beat frequency (CBF) of ciliated tissue, rinsing with Locke-Ringer solution after 15 minutes; assay type: cell-based; settings: for reversibility of effect on CBF: rinsing with LR after 15 minutes
Protocol: Disclosed are in vitro experiments, according to a previously published method (Merkus et al, 2001), describing the effect of four different solubilizers [25% propylene glycol, 15% glycerol, 25% polyethylene glycol 400 and 5% povidone], dissolved in a Locke-Ringer solution, on the ciliary beat frequency (CBF) of ciliated tissue. […] However, after rinsing with a pure Locke-Ringer solution, the effects on CBF appeared to be completely reversed within 20 minutes.
No ciliary beat frequency could be measured any more. […] Obviously the ciliated cells have been irreversibly damaged by the extreme hyperosmolar concentration of 50% propylene glycol. […] Thus, a nasal formulation containing a drug like apomorphine, dissolved in 50% or more (v/v) propylene glycol, is not a viable option, because it has to be administered in Parkinson's disease on a regular basis, for instance daily or several times per day or per week. On the other hand, such a high concentration of propylene glycol is needed to solubilise sufficient apomorphine (several mg per 0.1 ml) to treat a patient with off-periods in Parkinson's disease.
FIG. 1 is a graph showing the effect of 10% (v/v) propylene glycol (closed circles) or control (open circles) on ciliary beat frequency (CBF) of ciliated respiratory tissue. After 15 minutes contact with 10% (v/v) propylene glycol, tissue is rinsed with pure Locke-Ringer (LR) solution.
FIG. 2 is a graph showing the effect of 25% (v/v) propylene glycol (closed circles) or control (open circles) on ciliary beat frequency (CBF) of ciliated respiratory tissue. After 15 minutes contact with 25% (v/v) propylene glycol, tissue is rinsed with pure Locke-Ringer (LR) solution.
FIG. 3 is a graph showing the effect of 50% (v/v) propylene glycol (closed circles) or control (open circles) on ciliary beat frequency (CBF) of ciliated respiratory tissue. After 15 minutes contact with 50% (v/v) propylene glycol, tissue is rinsed with pure Locke-Ringer (LR) solution.
After 15 minutes contacts with 10% (v/v) propylene glycol, tissue is rinsed with pure Locke-Ringer (LR) solution.
After 15 minute contacts with 25% (v/v) propylene glycol, tissue is rinsed with pure Locke-Ringer (LR) solution.
After 15 minute contacts with 50% (v/v) propylene glycol, tissue is rinsed with pure Locke-Ringer (LR) solution.

[7] = solvent ethanol, read-out: solubility in ethanol
[8] = solvent propylene glycol, read-out: solubility in propylene glycol
[9] = 10% propylene glycol in Locke-Ringer solution, time 0 min
[10] = 10% propylene glycol in Locke-Ringer solution, time 5 min
[11] = 10% propylene glycol in Locke-Ringer solution, time 10 min
[12] = 10% propylene glycol in Locke-Ringer solution, time 15 min
[13] = 10% propylene glycol, time 20 min, after rinsing with LR at 15 min
[14] = 10% propylene glycol, time 30 min, after rinsing with LR at 15 min
[15] = 10% propylene glycol, time 40 min, after rinsing with LR at 15 min
[16] = 10% propylene glycol, time 50 min, after rinsing with LR at 15 min
[17] = 10% propylene glycol, time 60 min, after rinsing with LR at 15 min
[18] = 25% propylene glycol in Locke-Ringer solution, time 0 min
[19] = 25% propylene glycol in Locke-Ringer solution, time 15 min
[20] = 25% propylene glycol, time 20 min, after rinsing with LR at 15 min
[21] = 25% propylene glycol, time 30 min, after rinsing with LR at 15 min
[22] = 25% propylene glycol, time 40 min, after rinsing with LR at 15 min
[23] = 25% propylene glycol, time 50 min, after rinsing with LR at 15 min
[24] = 25% propylene glycol, time 60 min, after rinsing with LR at 15 min
[25] = 50% propylene glycol in Locke-Ringer solution, time 0 min
[26] = 50% propylene glycol in Locke-Ringer solution, time 5 min
[27] = 50% propylene glycol in Locke-Ringer solution, time 10 min
[28] = 50% propylene glycol in Locke-Ringer solution, time 15 min
[29] = 50% propylene glycol, time 20 min, after rinsing with LR at 15 min
[30] = 50% propylene glycol, time 30 min, after rinsing with LR at 15 min
[31] = 50% propylene glycol, time 40 min, after rinsing with LR at 15 min
[32] = 50% propylene glycol, time 50 min, after rinsing with LR at 15 min
[33] = 50% propylene glycol, time 60 min, after rinsing with LR at 15 min

solubility ([1]; solvent PEG 400, read-out: solubility in PEG 400): 15 mg/mL
solubility [1, 7]: 20 mg/mL
solubility ([1]; solvent glycerol, read-out: solubility in glycerol): 35 mg/mL
solubility [1, 8]: 80 mg/mL
stability on storage ([2]; aqueous solutions): not stable
stability on storage ([2]; non-aqueous solutions in propylene glycol, compared with aqueous): more stable
Structure (SMILES): CN1CCc2cccc3c2[C@H]1Cc1ccc(O)c(O)c1-3 [Apomorphine HCl]

solubility [1, 7]: 20 mg/mL
solubility [1, 8]: 250 mg/mL
Structure (SMILES): O=C1NS(=O)(=O)c2ccccc21.[Na] [Saccharin sodium]

Structure (SMILES): CN1CCc2cccc3c2[C@H]1Cc1ccc(O)c(O)c1-3 [apomorphine]
time to peak benefit ([3]; 3 mg apomorphine subcutaneous injection): 21 min
time to peak benefit ([3]; 30 mg apomorphine sublingual tablets): > 40 min
stomatitis on chronic use ([3]; chronic use of the sublingual formulation): severe stomatitis in half the subjects
aqueous solubility [4]: about 10 mg/ml

Structure (SMILES): OCC(O)CO [glycerol]
effect on CBF after 15 minutes [5]: strong decrease

reversibility of effect on CBF ([6]; 10% propylene glycol): reversible
reversibility of effect on CBF ([6]; 25% propylene glycol): reversible
cilia activity ([6]; 50% (v/v) propylene glycol, after 5-15 minutes contact): completely arrested
reversibility of effect on CBF ([6]; 50% propylene glycol): not reversible
Structure (SMILES): CC(O)CO (stereo not shown) [propylene glycol]
CBF (% of initial value), Mean [6, 9]: 100 % of initial value
CBF (% of initial value), single experiments [6, 9]: 100 % of initial value
CBF (% of initial value), Mean [6, 10]: 54 % of initial value
CBF (% of initial value), single experiments [6, 10]: 46 % of initial value and 58 % of initial value and 56 % of initial value and 51 % of initial value and 60 % of initial value
CBF (% of initial value), Mean [6, 11]: 54 % of initial value
CBF (% of initial value), single experiments [6, 11]: 50 % of initial value and 55 % of initial value and 63 % of initial value and 45 % of initial value
CBF (% of initial value), Mean [6, 12]: 50 % of initial value
CBF (% of initial value), single experiments [6, 12]: 57 % of initial value and 52 % of initial value and 43 % of initial value and 51 % of initial value and 45 % of initial value
CBF (% of initial value), Mean [6, 13]: 98 % of initial value
CBF (% of initial value), single experiments [6, 13]: 91 % of initial value and 92 % of initial value and 118 % of initial value and 110 % of initial value and 76 % of initial value
CBF (% of initial value), Mean [6, 14]: 97 % of initial value
CBF (% of initial value), single experiments [6, 14]: 94 % of initial value and 87 % of initial value and 110 % of initial value and 99 % of initial value and 93 % of initial value
CBF (% of initial value), Mean [6, 15]: 96 % of initial value
CBF (% of initial value), single experiments [6, 15]: 84 % of initial value and 91 % of initial value and 109 % of initial value and 102 % of initial value and 93 % of initial value
CBF (% of initial value), Mean [6, 16]: 95 % of initial value
CBF (% of initial value), single experiments [6, 16]: 82 % of initial value and 103 % of initial value and 106 % of initial value and 99 % of initial value and 86 % of initial value
CBF (% of initial value), Mean [6, 17]: 94 % of initial value
CBF (% of initial value), single experiments [6, 17]: 85 % of initial value and 94 % of initial value and 106 % of initial value and 99 % of initial value and 84 % of initial value
CBF (% of initial value), Mean [6, 18]: 100 % of initial value
CBF (% of initial value), single experiments [6, 18]: 100 % of initial value
CBF (% of initial value), Mean ([6]; 25% propylene glycol in Locke-Ringer solution, time 5 min): 11 % of initial value
CBF (% of initial value), Mean ([6]; 25% propylene glycol in Locke-Ringer solution, time 10 min): 3 % of initial value
CBF (% of initial value), Mean [6, 19]: 0 % of initial value
CBF (% of initial value), single experiments [6, 19]: 0 % of initial value
CBF (% of initial value), Mean [6, 20]: 80 % of initial value
CBF (% of initial value), single experiments [6, 20]: 86 % of initial value and 72 % of initial value and 85 % of initial value and 69 % of initial value and 87 % of initial value
CBF (% of initial value), Mean [6, 21]: 86 % of initial value
CBF (% of initial value), single experiments [6, 21]: 68 % of initial value and 101 % of initial value and 83 % of initial value and 89 % of initial value and 94 % of initial value
CBF (% of initial value), Mean [6, 22]: 97 % of initial value
CBF (% of initial value), single experiments [6, 22]: 97 % of initial value and 103 % of initial value and 99 % of initial value and 89 % of initial value and 94 % of initial value
CBF (% of initial value), Mean [6, 23]: 98 % of initial value
CBF (% of initial value), single experiments [6, 23]: 100 % of initial value and 102 % of initial value and 103 % of initial value and 91 % of initial value and 92 % of initial value
CBF (% of initial value), Mean [6, 24]: 97 % of initial value
CBF (% of initial value), single experiments [6, 24]: 102 % of initial value and 103 % of initial value and 94 % of initial value and 91 % of initial value
CBF (% of initial value), Mean [6, 25]: 100 % of initial value
CBF (% of initial value), single experiments [6, 25]: 100 % of initial value
CBF (% of initial value), Mean [6, 26]: 0 % of initial value
CBF (% of initial value), single experiments [6, 26]: 0 % of initial value
CBF (% of initial value), Mean [6, 27]: 0 % of initial value
CBF (% of initial value), single experiments [6, 27]: 0 % of initial value
CBF (% of initial value), Mean [6, 28]: 0 % of initial value
CBF (% of initial value), single experiments [6, 28]: 0 % of initial value
CBF (% of initial value), Mean [6, 29]: 0 % of initial value
CBF (% of initial value), single experiments [6, 29]: 0 % of initial value
CBF (% of initial value), Mean [6, 30]: 0 % of initial value
CBF (% of initial value), single experiments [6, 30]: 0 % of initial value
CBF (% of initial value), Mean [6, 31]: 0 % of initial value
CBF (% of initial value), single experiments [6, 31]: 0 % of initial value
CBF (% of initial value), Mean [6, 32]: 0 % of initial value
CBF (% of initial value), single experiments [6, 32]: 0 % of initial value
CBF (% of initial value), Mean [6, 33]: 0 % of initial value
CBF (% of initial value), single experiments [6, 33]: 0 % of initial value
effect on CBF after 15 minutes [5]: strong decrease
